Test results: US20240228458A1, “PYRIMIDINE DERIVATIVE HAVING PROTEIN KINASE INHIBITORY ACTIVITY, AND THERAPEUTIC PHARMACEUTICAL COMPOSITION COMPRISING SAME” (THERAPEX CO., LTD., priority 2021, published 2024)

Key:
Type in all cases: cell-based
[1] = tested on: Ba/F3 cells expressing EGFR-wt; test: Growth inhibition (GI50) of Ba/F3 cells expressing EGFR-wt, Celltiter glo; conditions: Mus musculus, BaF3, 72 h
How it was run: (§1)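 Ba/F3 cells carrying each EGFR variant were plated at 100,000 cells/ml; after 4 h, compound was added as 10-point 4-fold dilutions (top stock 2 mM, 0.5% DMSO). After 72 h at 37 °C, viability was read by CellTiter-Glo; GI50 is the molar concentration (μM) giving 50% growth inhibition.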

[2] = tested on: Ba/F3 cells expressing del19/T790M/C797S (EGFR-DTC); test: Growth inhibition (GI50) of Ba/F3 cells expressing del19/T790M/C797S (EGFR-DTC), Celltiter glo; conditions: Mus musculus, BaF3, 72 h
How it was run: as §1

[3] = tested on: Ba/F3 cells expressing L858R/T790M/C797S (EGFR-LTC); test: Growth inhibition (GI50) of Ba/F3 cells expressing L858R/T790M/C797S (EGFR-LTC), Celltiter glo; conditions: Mus musculus, BaF3, 72 h
How it was run: as §1

[4] = tested on: Ba/F3 cells expressing del19/T790M (EGFR-DT); test: Growth inhibition (GI50) of Ba/F3 cells expressing del19/T790M (EGFR-DT), Celltiter glo; conditions: Mus musculus, BaF3, 72 h
How it was run: as §1

[5] = tested on: Ba/F3 cells expressing L858R/T790M (EGFR-LT); test: Growth inhibition (GI50) of Ba/F3 cells expressing L858R/T790M (EGFR-LT), Celltiter glo; conditions: Mus musculus, BaF3, 72 h
How it was run: as §1

parental Ba/F3 cell line = test: Growth inhibition (GI50) of the parental Ba/F3 cell line (not introduced with EGFR variants), Celltiter glo; conditions: Mus musculus, BaF3, 72 h, parental Ba/F3 cells
How it was run: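 Parental Ba/F3 cells (100,000 cells/ml) were treated with 10-point, 4-fold compound dilutions (0.5% DMSO; top stock 2 mM) for 72 h at 37 °C, 5% CO2. Viability was read by CellTiter-Glo; GI50 is the concentration (μM) giving 50% growth inhibition.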

GI50 [1] [nM]	GI50 [2] [nM]	GI50 [3] [nM]	GI50 [4] [nM]	GI50 [5] [nM]	Compound	GI50 (parental Ba/F3 cell line) [nM]
100 to 500	100 to 500	25 to 100	25 to 100	25 to 100	Cc1cc(Nc2ncc(Cl)c(Nc3cc(Cl)ccc3NS(C)(=O)=O)n2)c(Cl)cc1N1CCC(N2CCC(N(C)C)C2)CC1 (stereo not drawn) [Example 157, N-(4-chloro-2-((5-chloro-2-((2-chloro-4-(4-(3-(dimethylamino)pyrrolidin-1-yl)piperidin-1-yl)-5-methylphenyl)amino)pyrimidin-4-yl)amino)phenyl)methanesulfonamide]	500 to 2000
500 to 2000	1 to 25	1 to 25	25 to 100	25 to 100	Cc1cc(Nc2ncc(Cl)c(Nc3cc(Cl)ccc3NS(C)(=O)=O)n2)c(Cl)cc1N1CCC(N2CCN(C)CC2)CC1 [Example 158, N-(4-chloro-2-((5-chloro-2-((2-chloro-5-methyl-4-(4-(4-methylpiperazin-1-yl)piperidin-1-yl)phenyl)amino)pyrimidin-4-yl)amino)phenyl)methanesulfonamide]	2000 to 10000
500 to 2000	25 to 100	100 to 500	100 to 500	100 to 500	COc1cc(N2CCC(N3CCN(C)CC3)CC2)c(C)cc1Nc1ncc(Cl)c(Nc2cc(C(C)C)ccc2NS(C)(=O)=O)n1 [Example 160, N-(2-((5-chloro-2-((2-methoxy-5-methyl-4-(4-(4-methylpiperazin-1-yl)piperidin-1-yl)phenyl)amino)pyrimidin-4-yl)amino)-4-isopropylphenyl)methanesulfonamide]	2000 to 10000
2000 to 10000	100 to 500	500 to 2000	100 to 500	500 to 2000	COc1cc(N2CCC(N3CCN(C)CC3)CC2)c(Cl)cc1Nc1ncc(Cl)c(Nc2cc(C(C)C)ccc2NS(C)(=O)=O)n1 [Example 161, N-(2-((5-chloro-2-((5-chloro-2-methoxy-4-(4-(4-methylpiperazin-1-yl)piperidin-1-yl)phenyl)amino)pyrimidin-4-yl)amino)-4-isopropylphenyl)methanesulfonamide]	2000 to 10000
500 to 2000	100 to 500	2000 to 10000	2000 to 10000	2000 to 10000	Cc1cc(Nc2ncc(Cl)c(Nc3cc(Cl)ccc3NS(C)(=O)=O)n2)c(Cl)cc1N1CCC(N2CCCN(C)CC2)CC1 [Example 162, N-(4-chloro-2-((5-chloro-2-((2-chloro-5-methyl-4-(4-(4-methyl-1,4-diazepan-1-yl)piperidin-1-yl)phenyl)amino)pyrimidin-4-yl)amino)phenyl)methanesulfonamide]	2000 to 10000
2000 to 10000	100 to 500	2000 to 10000	2000 to 10000	2000 to 10000	COc1cc(N2CCC(N3CCCN(C)CC3)CC2)c(Cl)cc1Nc1ncc(Cl)c(Nc2cc(Cl)ccc2NS(C)(=O)=O)n1 [Example 163, N-(4-chloro-2-((5-chloro-2-((5-chloro-2-methoxy-4-(4-(4-methyl-1,4-diazepan-1-yl)piperidin-1-yl)phenyl)amino)pyrimidin-4-yl)amino)phenyl)methanesulfonamide]	> 10000
100 to 500	1 to 25	1 to 25	25 to 100	1 to 25	Cc1cc(Nc2ncc(Cl)c(Nc3cc4c(cc3NS(C)(=O)=O)CCO4)n2)c(Cl)cc1N1CCC(N2CCCN(C)CC2)CC1 [Example 172, N-(6-((5-chloro-2-((2-chloro-5-methyl-4-(4-(4-methyl-1,4-diazepan-1-yl)piperidin-1-yl)phenyl)amino)pyrimidin-4-yl)amino)-2,3-dihydrobenzofuran-5-yl)methanesulfonamide]	100 to 500
100 to 500	25 to 100	25 to 100	1 to 25	1 to 25	Cc1cc(Nc2ncc(Cl)c(Nc3cc4c(cc3NS(C)(=O)=O)CCO4)n2)c(Cl)cc1N1CCC(N2CCN(C)CC2)CC1 [Example 173, N-(6-((5-chloro-2-((2-chloro-5-methyl-4-(4-(4-methylpiperazin-1-yl)piperidin-1-yl)phenyl)amino)pyrimidin-4-yl)amino)-2,3-dihydrobenzofuran-5-yl)methanesulfonamide]	100 to 500

Second part, the compound before the results:

Compound	GI50 [1] [nM]	GI50 [2] [nM]	GI50 [3] [nM]	GI50 [4] [nM]	GI50 [5] [nM]	GI50 (parental Ba/F3 cell line) [nM]
COc1cc(N2CCC(N3CCN(C)CC3)CC2)c(Cl)cc1Nc1ncc(Br)c(Nc2cc(Cl)ccc2N(C)S(C)(=O)=O)n1 [Example 156, N-(2-((5-bromo-2-((5-chloro-2-methoxy-4-(4-(4-methylpiperazin-1-yl)piperidin-1-yl)phenyl)amino)pyrimidin-4-yl)amino)-4-chlorophenyl)-N-methylmethanesulfonamide]	1 to 25	1 to 25	1 to 25	1 to 25	1 to 25	100 to 500
COc1cc(N2CCC(N3CCN(C)CC3)CC2)c(C)cc1Nc1nnc(Cl)c(Nc2ccc(F)cc2NS(C)(=O)=O)n1 [Example 164, N-(2-((6-chloro-3-((2-methoxy-5-methyl-4-(4-(4-methylpiperazin-1-yl)piperidin-1-yl)phenyl)amino)-1,2,4-triazin-5-yl)amino)-5-fluorophenyl)methanesulfonamide]	2000 to 10000	100 to 500	2000 to 10000	2000 to 10000	2000 to 10000	> 10000
COc1cc(N2CCC(N3CCCN(C)CC3)CC2)c(C)cc1Nc1ncc(Cl)c(Nc2cc3c(cc2NS(C)(=O)=O)CCO3)n1 [Example 165, N-(6-((5-chloro-2-((2-methoxy-5-methyl-4-(4-(4-methyl-1,4-diazepan-1-yl)piperidin-1-yl)phenyl)amino)pyrimidin-4-yl)amino)-2,3-dihydrobenzofuran-5-yl)methanesulfonamide]	500 to 2000	25 to 100	25 to 100	25 to 100	25 to 100	2000 to 10000
CN(C)CCCn1cc(Nc2ncc(Cl)c(Nc3cc(Cl)ccc3NS(C)(=O)=O)n2)cn1 [Example 167, N-(4-chloro-2-((5-chloro-2-((1-(3-(dimethylamino)propyl)-1H-pyrazol-4-yl)amino)pyrimidine-4-yl)amino)phenyl)methanesulfonamide]	500 to 2000	100 to 500	2000 to 10000	2000 to 10000	2000 to 10000	2000 to 10000
COc1cc(N2CCC(N3CCN(C)CC3)CC2)c(Cl)cc1Nc1ncc(Cl)c(Nc2cc3c(cc2NS(C)(=O)=O)CCO3)n1 [Example 168, N-(6-((5-chloro-2-((5-chloro-2-methoxy-4-(4-(4-methylpiperazin-1-yl)piperidin-1-yl)phenyl)amino)pyrimidin-4-yl)amino)-2,3-dihydrobenzofuran-5-yl)methanesulfonamide]	25 to 100	1 to 25	1 to 25	1 to 25	1 to 25	2000 to 10000
COc1cc(N2CCC(N3CCN(C)CC3)CC2)c(C)cc1Nc1ncc(Br)c(Nc2cc3c(cc2NS(C)(=O)=O)CCO3)n1 [Example 169, N-(6-((5-bromo-2-((2-methoxy-5-methyl-4-(4-(4-methylpiperazin-1-yl)piperidin-1-yl)phenyl)amino)pyrimidin-4-yl)amino)-2,3-dihydrobenzofuran-5-yl)methanesulfonamide]	100 to 500	1 to 25	1 to 25	1 to 25	1 to 25	500 to 2000
COc1cc(N2CCC(N3CCN(C)CC3)CC2)c(Cl)cc1Nc1ncc(Cl)c(Nc2cc(Cl)ccc2N(C)S(C)(=O)=O)n1 [Example 170, N-(4-chloro-2-((5-chloro-2-((5-chloro-2-methoxy-4-(4-(4-methylpiperazin-1-yl)piperidin-1-yl)phenyl)amino)pyrimidin-4-yl)amino)phenyl)-N-methylmethanesulfonamide]	25 to 100	1 to 25	1 to 25	1 to 25	1 to 25	100 to 500
COc1cc(N2CCC(N3CCCN(C)CC3)CC2)c(Cl)cc1Nc1ncc(Cl)c(Nc2cc3c(cc2NS(C)(=O)=O)CCO3)n1 [Example 174, N-(6-((5-chloro-2-((5-chloro-2-methoxy-4-(4-(4-methyl-1,4-diazepan-1-yl)piperidin-1-yl)phenyl)amino)pyrimidin-4-yl)amino)-2,3-dihydrobenzofuran-5-yl)methanesulfonamide]	100 to 500	1 to 25	25 to 100	1 to 25	1 to 25	500 to 2000
Cc1cc(Nc2ncc(Br)c(Nc3cc4c(cc3NS(C)(=O)=O)CCO4)n2)c(Cl)cc1N1CCC(N2CCN(C)CC2)CC1 [Example 175, N-(6-((5-bromo-2-((2-chloro-5-methyl-4-(4-(4-methylpiperazin-1-yl)piperidin-1-yl)phenyl)amino)pyrimidin-4-yl)amino)-2,3-dihydrobenzofuran-5-yl)methanesulfonamide]	500 to 2000	25 to 100	25 to 100	100 to 500	100 to 500	> 10000
